Source: US20060069132A1, “Azolecarboxamide herbicides” (priority 2004, published 2006)

Tests used:
Surinam grass = test: Test B pre-/postemergence herbicide test; format: in vivo, Urochloa decumbens; settings: for Surinam Grass plant response rating: postemergence, scale 0 (no effect) to 100 (complete control)
Procedure, shortened: (§1)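 Seeds were planted and treated preemergence with compounds formulated in a non-phytotoxic solvent mixture containing surfactant, while plants at the 1- to 4-leaf stage (2 to 18 cm) received postemergence sprays. Flooded paddy plants were grown to the 2-leaf stage. After 13 to 15 days in a greenhouse, injury was visually rated 0–100 against untreated controls.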

velvetleaf = test: Test B pre-/postemergence herbicide test; format: in vivo, Abutilon theophrasti; settings: for Velvetleaf plant response rating: postemergence, scale 0 (no effect) to 100 (complete control)
Procedure, shortened: as §1

cocklebur = test: Test B pre-/postemergence herbicide test; format: in vivo, Xanthium strumarium; settings: for Cocklebur plant response rating: postemergence, scale 0 (no effect) to 100 (complete control)
Procedure, shortened: (§2)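 Species tested were Echinochloa crus-galli, Ipomoea coccinea, Xanthium strumarium and Oryza sativa, treated both before emergence and at the 1- to 4-leaf stage; rice and barnyardgrass were also tested under flooding at 2 leaves. Greenhouse incubation lasted 13–15 days before visual 0–100 scoring.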

ducksalad [1] = test: Test B flooded paddy test; format: in vivo, Heteranthera limosa; settings: 1000 g ai/ha, visual rating, scale 0 to 100 (0 no effect, 100 complete control), 13 to 15 days
Procedure, shortened: (§3)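 Plants grow to 1- to 4-leaf stage (2–18 cm) for postemergence spraying, or to 2-leaf stage for the paddy test. Formulated compound is applied. Greenhouse holding lasts 13–15 days. Response is scored visually relative to controls, 0 no effect to 100 complete control; a dash means no result.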

lambsquarters = test: Test B pre-/postemergence herbicide test; format: in vivo, Chenopodium album; settings: for Lambsquarters plant response rating: postemergence, scale 0 (no effect) to 100 (complete control)
Procedure, shortened: as §1

blackgrass = test: Test B postemergence herbicide test; format: in vivo, Alopecurus myosuroides; settings: postemergence, visual rating, scale 0 (no effect) to 100 (complete control)
Procedure, shortened: as §3

[2] = system: small flower umbrella sedge; test: Test B flooded paddy test; format: in vivo, Cyperus difformis; settings: 1000 g ai/ha, visual rating, scale 0 to 100 (0 no effect, 100 complete control), 13 to 15 days
Procedure, shortened: as §3

ducksalad [3] = test: Test C flooded paddy test; format: in vivo, Heteranthera limosa
corn = test: Test B pre-/postemergence herbicide test; format: in vivo, Zea mays; settings: for Corn plant response rating: postemergence, scale 0 (no effect) to 100 (complete control)
Procedure, shortened: as §1

large crabgrass = test: Test B pre-/postemergence herbicide test; format: in vivo, Digitaria sanguinalis; settings: for Crabgrass, Large plant response rating: postemergence, scale 0 (no effect) to 100 (complete control)
Procedure, shortened: as §1

rice [4] = test: Test C flooded paddy test; format: in vivo, Oryza sativa
Procedure, shortened: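 Plants were grown to the 1- to 4-leaf stage (2–18 cm) and then treated postemergence, or grown to the 2-leaf stage for the flooded paddy test. They were held in a greenhouse for 12 to 14 days and then scored by eye against controls, where 0 is no effect and 100 is complete control.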

barnyardgrass [5] = test: Test B flooded paddy test; format: in vivo, Echinochloa crus-galli; settings: 1000 g ai/ha, visual rating, scale 0 to 100 (0 no effect, 100 complete control), 13 to 15 days
Procedure, shortened: as §3

wild oat = test: Test B postemergence herbicide test; format: in vivo, Avena fatua; settings: postemergence, visual rating, scale 0 (no effect) to 100 (complete control)
Procedure, shortened: (§4)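 Formulated test chemicals went onto postemergence plants measuring 2 to 18 cm, at one to four leaves. For the paddy assay, species had reached two leaves. Scoring took place 13–15 days later by eye, relative to untreated plants, using 0 for no effect up to 100 for full control.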

barnyardgrass [6] = test: Test B pre-/postemergence herbicide test; format: in vivo, Echinochloa crus-galli; settings: for Barnyardgrass plant response rating: postemergence, scale 0 (no effect) to 100 (complete control)
Procedure, shortened: as §2

pigweed = test: Test B pre-/postemergence herbicide test; format: in vivo, Amaranthus retroflexus; settings: for Pigweed plant response rating: postemergence, scale 0 (no effect) to 100 (complete control)
Procedure, shortened: as §1

barnyardgrass [7] = test: Test C flooded paddy test; format: in vivo, Echinochloa crus-galli
Procedure, shortened: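 Greenhouse test with a 12–14 day hold after application and visual comparison with controls. Emerged plants were 1- to 4-leaf stage (2–18 cm) when sprayed postemergence, and the paddy barnyardgrass was at 2 leaves under flooded conditions. 100 = complete control.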

giant foxtail = test: Test B pre-/postemergence herbicide test; format: in vivo, Setaria faberi; settings: for Foxtail, Giant plant response rating: postemergence, scale 0 (no effect) to 100 (complete control)
Procedure, shortened: as §1

wheat = test: Test B postemergence herbicide test; format: in vivo, Triticum aestivum; design: key to Wheat plant response rating: 0 = no effect, 100 = complete control; settings: postemergence, visual rating, scale 0 (no effect) to 100 (complete control)
Procedure, shortened: as §4

morningglory = test: Test B pre-/postemergence herbicide test; format: in vivo, Ipomoea coccinea; settings: for Morningglory plant response rating: postemergence, scale 0 (no effect) to 100 (complete control)
Procedure, shortened: as §2

[8] = system: smallflower umbrella sedge; test: Test C flooded paddy test; format: in vivo, Cyperus difformis
rice [9] = test: Test B pre-/postemergence herbicide test; format: in vivo, Oryza sativa; settings: 0 = no effect, 100 = complete control, preemergence
Procedure, shortened: as §1

rice [10] = test: Test B flooded paddy test; format: in vivo, Oryza sativa; settings: 1000 g ai/ha, visual rating, scale 0 to 100 (0 no effect, 100 complete control), 13 to 15 days
Procedure, shortened: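 Visual ratings, 0 (no effect) to 100 (complete control), made versus controls after 13–15 d greenhouse. Paddy plants treated at 2-leaf stage; postemergence plants at 1- to 4-leaf stage, 2–18 cm tall.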

[11] = 125 g ai/ha, 0 = no effect, 100 = complete control, preemergence
[12] = 500 g ai/ha, visual rating, 0 = no effect, 100 = complete control, preemergence
[13] = 62 g ai/ha, scale 0 to 100 (0 no effect, 100 complete control)
[14] = 125 g ai/ha, scale 0 to 100 (0 no effect, 100 complete control)
[15] = 250 g ai/ha, scale of 0 to 100, 0 is no effect, 100 is complete control
[16] = 500 g ai/ha, visual rating after 12 to 14 days, scale 0 to 100 (0 no effect, 100 complete control)

CCc1nc(C(C)(C)C)sc1C(=O)Nc1cccc(C(=O)N(C)C)c1 [Compound 228]
Surinam Grass plant response rating (0 to 100 scale) (Surinam grass; [11]): 60
Plant response rating, Surinam Grass (Surinam grass; [12]): 100
Surinam Grass plant response rating (Surinam grass; 125 g ai/ha, visual rating): 20
Surinam Grass plant response rating (Surinam grass; 500 g ai/ha, visual rating): 40
Velvetleaf plant response rating (0 to 100 scale) (velvetleaf; [11]): 100
Plant response rating, Velvetleaf (velvetleaf; [12]): 100
Velvetleaf plant response rating (velvetleaf; 125 g ai/ha, visual rating): 60
Velvetleaf plant response rating (velvetleaf; 500 g ai/ha, visual rating): 80
Cocklebur plant response rating (0 to 100 scale) (cocklebur; [11]): 30
Plant response rating, Cocklebur (cocklebur; [12]): 80
Cocklebur plant response rating (cocklebur; 125 g ai/ha, visual rating): 30
Cocklebur plant response rating (cocklebur; 500 g ai/ha, visual rating): 80
Ducksalad plant response rating (ducksalad [1]): 90
Lambsquarters plant response rating (0 to 100 scale) (lambsquarters; [11]): 100
Plant response rating, Lambsquarters (lambsquarters; [12]): 100
Lambsquarters plant response rating (lambsquarters; 125 g ai/ha, visual rating): 70
Lambsquarters plant response rating (lambsquarters; 500 g ai/ha, visual rating): 80
Blackgrass plant response rating (blackgrass; 125 g ai/ha): 30
Blackgrass plant response rating (blackgrass; 500 g ai/ha): 40
Sedge, Umbrella plant response rating [2]: 80
Ducksalad plant response rating (ducksalad [3]; [13]): 80
Ducksalad plant response rating (ducksalad [3]; [14]): 85
Ducksalad plant response rating (ducksalad [3]; [15]): 90
Plant response rating, Ducksalad (ducksalad [3]; [16]): 90
Corn plant response rating (0 to 100 scale) (corn; [11]): 60
Plant response rating, Corn (corn; [12]): 80
Corn plant response rating (corn; 125 g ai/ha, visual rating): 10
Corn plant response rating (corn; 500 g ai/ha, visual rating): 30
Crabgrass, Large plant response rating (0 to 100 scale) (large crabgrass; [11]): 60
Plant response rating, Crabgrass, Large (large crabgrass; [12]): 100
Crabgrass, Large plant response rating (large crabgrass; 125 g ai/ha, visual rating): 20
Crabgrass, Large plant response rating (large crabgrass; 500 g ai/ha, visual rating): 40
Rice plant response rating (rice [4]; [13]): 75
Rice plant response rating (rice [4]; [14]): 80
Rice plant response rating (rice [4]; [15]): 80
Plant response rating, Rice (rice [4]; [16]): 85
Barnyardgrass plant response rating (barnyardgrass [5]): 90
Oat, Wild plant response rating (wild oat; 125 g ai/ha): 40
Oat, Wild plant response rating (wild oat; 500 g ai/ha): 50
Barnyardgrass plant response rating (0 to 100 scale) (barnyardgrass [6]; [11]): 80
Plant response rating, Barnyardgrass (barnyardgrass [6]; [12]): 100
Barnyardgrass plant response rating (barnyardgrass [6]; 125 g ai/ha, visual rating): 30
Barnyardgrass plant response rating (barnyardgrass [6]; 500 g ai/ha, visual rating): 70
Pigweed plant response rating (0 to 100 scale) (pigweed; [11]): 90
Plant response rating, Pigweed (pigweed; [12]): 100
Pigweed plant response rating (pigweed; 125 g ai/ha, visual rating): 50
Pigweed plant response rating (pigweed; 500 g ai/ha, visual rating): 80
Barnyardgrass plant response rating (barnyardgrass [7]; [13]): 80
Barnyardgrass plant response rating (barnyardgrass [7]; [14]): 85
Barnyardgrass plant response rating (barnyardgrass [7]; [15]): 95
Plant response rating, Barnyardgrass (barnyardgrass [7]; [16]): 95
Foxtail, Giant plant response rating (0 to 100 scale) (giant foxtail; [11]): 70
Plant response rating, Foxtail, Giant (giant foxtail; [12]): 100
Foxtail, Giant plant response rating (giant foxtail; 125 g ai/ha, visual rating): 30
Foxtail, Giant plant response rating (giant foxtail; 500 g ai/ha, visual rating): 50
Wheat plant response rating (wheat; 125 g ai/ha): 30
Wheat plant response rating (wheat; 500 g ai/ha): 40
Morningglory plant response rating (0 to 100 scale) (morningglory; [11]): 10
Plant response rating, Morningglory (morningglory; [12]): 40
Morningglory plant response rating (morningglory; 125 g ai/ha, visual rating): 70
Morningglory plant response rating (morningglory; 500 g ai/ha, visual rating): 80
Sedge, Umbrella plant response rating [8, 13]: 80
Sedge, Umbrella plant response rating [8, 14]: 80
Sedge, Umbrella plant response rating [8, 15]: 80
Plant response rating, Sedge, Umbrella [8, 16]: 85
Rice plant response rating (0 to 100 scale) (rice [9]; 125 g ai/ha): 80
Plant response rating, Rice (rice [9]; 500 g ai/ha, visual rating): 90
Rice plant response rating (rice [10]): 90
